Data reported in PMC12439166, “Dietary flavonoids form supramolecular assemblies, alter biochemistry, and enhance cell resilience” (Frontiers in Nutrition, 2025).

How the values were obtained:
[1] = target: T1, Histone-Lysine N-methyltransferase (NSD2) (Homo sapiens, UniProt O96028); assay: Enzyme activity assay (SAMDI-MS), NSD2; format: biochemical; details: 10 concentrations, 5 nM to 100 μM, compounds incubated with enzyme 30 min, result in words
T1 sequence (O96028 1-1365): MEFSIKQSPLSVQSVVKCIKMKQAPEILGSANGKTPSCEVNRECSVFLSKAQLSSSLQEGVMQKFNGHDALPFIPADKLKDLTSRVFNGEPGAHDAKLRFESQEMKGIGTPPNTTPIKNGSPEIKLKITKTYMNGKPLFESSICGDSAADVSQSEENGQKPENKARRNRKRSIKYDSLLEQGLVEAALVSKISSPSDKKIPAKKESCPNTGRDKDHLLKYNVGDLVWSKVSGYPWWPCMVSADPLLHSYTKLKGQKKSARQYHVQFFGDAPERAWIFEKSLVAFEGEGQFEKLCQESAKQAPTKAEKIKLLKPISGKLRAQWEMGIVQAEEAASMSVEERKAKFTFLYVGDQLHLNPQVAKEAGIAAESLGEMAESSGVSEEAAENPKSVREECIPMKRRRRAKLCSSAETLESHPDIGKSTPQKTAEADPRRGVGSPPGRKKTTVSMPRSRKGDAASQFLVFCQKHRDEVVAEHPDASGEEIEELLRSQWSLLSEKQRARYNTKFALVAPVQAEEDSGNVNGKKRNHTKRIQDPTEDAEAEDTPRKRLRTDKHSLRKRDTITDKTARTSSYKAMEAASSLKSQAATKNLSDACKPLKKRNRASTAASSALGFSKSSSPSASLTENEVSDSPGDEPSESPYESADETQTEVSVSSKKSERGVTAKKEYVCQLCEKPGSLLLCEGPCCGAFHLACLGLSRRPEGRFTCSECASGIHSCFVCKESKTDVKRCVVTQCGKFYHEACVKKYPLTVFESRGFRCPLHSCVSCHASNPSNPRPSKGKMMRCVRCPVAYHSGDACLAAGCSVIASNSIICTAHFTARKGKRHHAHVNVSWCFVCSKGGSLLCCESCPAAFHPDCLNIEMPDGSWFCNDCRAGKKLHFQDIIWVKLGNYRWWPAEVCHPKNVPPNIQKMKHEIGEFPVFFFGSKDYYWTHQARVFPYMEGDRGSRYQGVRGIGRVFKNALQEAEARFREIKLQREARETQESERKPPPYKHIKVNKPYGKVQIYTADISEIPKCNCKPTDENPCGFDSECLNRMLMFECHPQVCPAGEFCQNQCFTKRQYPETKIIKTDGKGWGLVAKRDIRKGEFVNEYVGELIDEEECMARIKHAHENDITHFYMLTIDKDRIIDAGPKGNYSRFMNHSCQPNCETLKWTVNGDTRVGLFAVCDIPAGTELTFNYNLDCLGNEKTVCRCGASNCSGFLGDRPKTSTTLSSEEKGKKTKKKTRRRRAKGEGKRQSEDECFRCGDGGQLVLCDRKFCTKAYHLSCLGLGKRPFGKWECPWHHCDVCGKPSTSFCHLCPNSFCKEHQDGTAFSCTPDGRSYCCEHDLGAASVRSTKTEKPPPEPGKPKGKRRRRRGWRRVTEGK
Description: Enzyme screens were performed by SAMDI Tech (contract research organization); enzyme assays were performed in a 20 μL volume in 384-well low-volume polypropylene microtiter plates (Greiner Bio-One) at room temperature. The enzymes [Arginase 1 (ARG1), Lysine demethylase 4C (KDM4C), MAP/microtubule affinity-regulating kinase 4 (MARK4), Histone-Lysine N-methyltransferase (NSD2), Tyrosine-protein phosphatase non-receptor type 1 (PTP1B), and Sirtuin-3 (SIRT3)] were incubated with compounds for 30 min prior to initiation of the reaction by the addition of substrate and cofactors (if required). Reactions were quenched by the addition of 0.5% formic acid (final) with subsequent neutralization using 1% sodium bicarbonate (final). For SAMDI MS analysis, 2 μL of each reaction was transferred using a 384-channel automated liquid handler to SAMDI biochip arrays functionalized with a neutravidin-presenting self-assembled monolayer. The preparation of SAMDI biochip arrays has been previously described ([41], [42], [49]). The SAMDI arrays were incubated for 1 h in a humidified chamber to allow specific immobilization of the biotinylated substrates and products; they were then purified by washing with ultrafiltered water (50 μL/spot) and dried with compressed air. A matrix comprising α-Cyano-4-hydroxycinnamic acid in 80% acetonitrile: 20% aqueous ammonium citrate (10 mg/mL final) was applied in an automated format by dispensing 50 nL to each spot in the array. SAMDI MS was performed using reflector positive mode on an AB Sciex TOF-TOF 5800 System (AB Sciex, Framingham, MA) with 400 shots/spot analyzed in a random raster sampling. For data analysis, the area under the curves (AUCs) for the product peak and substrate peak were calculated using the TOF/TOF Series Explorer (AB Sciex), and the amount of product formed was calculated using the equation AUC product / (AUC product + AUC Substrate). Negative controls were pre-quenched with 0.5% formic acid (final). Lysozyme assay was performed using the manufacturer’s instructions (Biovision Lysozyme inhibitor screening kit K237). Flavonoids were acquired from Sigma-Aldrich and Seleckchem.
IC50 values of enzyme inhibition. Inhibition of the enzymes was measured at 10 concentration values in the range of 5 nM to 100 μM for each compound and enzyme, with two technical replicates; the percent inhibition values were determined by SAMDI software. Sigmoidal curves were fitted to the percent inhibition vs log10 (concentration) series, and IC50 values were determined at the crossing point of 50 % inhibition. Manual verification of the fits and the IC50 values was performed. The resulting IC50 values fell into the following categories: (a) within the assayed range of 5nM to 100μM (26 % of fits), (b) IC50 could be extrapolated, IC50 > 100μM (12 % of fits), or (c) fitting was not possible because all values were at baseline (62 % of fits). Compound efficacy ranking. First, for each IC50 value per compound and enzyme, a Z-score was calculated based on the log10 (IC50) value and that of the compounds that produced a successful readout for enzyme i , according to Equation 1: […]

Arginase 1 (ARG1) = target: T2, Arginase 1 (ARG1) (Homo sapiens, UniProt P05089); assay: Enzyme activity assay (SAMDI-MS), Arginase 1; format: biochemical; details: 10 concentrations, 5 nM to 100 μM, compounds incubated with enzyme 30 min, result in words
T2 sequence (P05089 1-322): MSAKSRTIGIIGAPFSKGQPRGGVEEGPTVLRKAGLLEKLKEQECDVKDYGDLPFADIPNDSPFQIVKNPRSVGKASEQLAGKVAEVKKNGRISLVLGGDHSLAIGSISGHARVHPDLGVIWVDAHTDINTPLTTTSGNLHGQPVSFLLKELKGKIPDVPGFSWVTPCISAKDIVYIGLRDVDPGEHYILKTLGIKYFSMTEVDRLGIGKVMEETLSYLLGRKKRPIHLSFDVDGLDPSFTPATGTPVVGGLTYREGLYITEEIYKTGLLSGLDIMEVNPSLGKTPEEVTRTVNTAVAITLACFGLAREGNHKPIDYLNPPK
Description: Enzyme screens were performed by SAMDI Tech (contract research organization); enzyme assays were performed in a 20 μL volume in 384-well low-volume polypropylene microtiter plates (Greiner Bio-One) at room temperature. The enzymes [Arginase 1 (ARG1), Lysine demethylase 4C (KDM4C), MAP/microtubule affinity-regulating kinase 4 (MARK4), Histone-Lysine N-methyltransferase (NSD2), Tyrosine-protein phosphatase non-receptor type 1 (PTP1B), and Sirtuin-3 (SIRT3)] were incubated with compounds for 30 min prior to initiation of the reaction by the addition of substrate and cofactors (if required). […] SAMDI MS was performed using reflector positive mode on an AB Sciex TOF-TOF 5800 System (AB Sciex, Framingham, MA) with 400 shots/spot analyzed in a random raster sampling. For data analysis, the area under the curves (AUCs) for the product peak and substrate peak were calculated using the TOF/TOF Series Explorer (AB Sciex), and the amount of product formed was calculated using the equation AUC product / (AUC product + AUC Substrate). […]
IC50 values of enzyme inhibition. Inhibition of the enzymes was measured at 10 concentration values in the range of 5 nM to 100 μM for each compound and enzyme, with two technical replicates; the percent inhibition values were determined by SAMDI software. […]

| Structure (SMILES) | inhibition of enzyme activity, NSD2 [1] | inhibition of enzyme activity, ARG1 (Arginase 1 (ARG1); listed as Quercetin) | inhibition of enzyme activity, ARG1 (Arginase 1 (ARG1); listed as Quercitin) | inhibition of enzyme activity, NSD2 ([1]; listed as Quercetin) | inhibition of enzyme activity, NSD2 ([1]; listed as Quercitin) |
| --- | --- | --- | --- | --- | --- |
| O=c1c(O[C@@H]2O[C@H](CO)[C@@H](O)[C@H](O)[C@H]2O)c(-c2ccc(O)c(O)c2)oc2cc(O)cc(O)c12 [isoquercitrin] | blocked |  |  |  |  |
| O=c1c(O)c(-c2ccc(O)c(O)c2)oc2cc(O)cc(O)c12 [quercetin] | blocked | inhibited | concentration-dependent inhibition | inhibited | concentration-dependent inhibition |
| C[C@@H]1O[C@@H](Oc2c(-c3ccc(O)c(O)c3)oc3cc(O)cc(O)c3c2=O)[C@H](O)[C@H](O)[C@H]1O [quercitrin] | blocked |  |  |  |  |
